Data set [1] has as its system HIV-1-BaL. Briefly: HIV-1 infection of monocytes / mononuclear phagocytes (Mo, Mac), supernatant medium RT activity. The conditions noted are these: for inhibition of productive HIV-1 infection: Mo, Mac, added at viral inoculation and left in throughout culture. It is filed as cell-based. The method, then: (§1) Monocytes and lymphocytes were isolated and cultured as previously described (J. Exp. Med. 174:1477 (1991)). Briefly, monocytes were isolated by sequential ficoll-sodium diazotrate and Percoll gradients with subsequent adherence to cultureware plastic, and then cultured in Dulbecco's modified Eagle medium (GIBCO, Grand Islands, N.Y.) with 10% unheated human serum. Lymphocytes were from ficoll-sodium diazotrate gradients, and were cultured with anti-CD3/anti-CD28 antibody and subsequently IL-2. Reverse transcription (RT) was measured as described (Weinberg et al, J. Exp. Med. 174:1477 (1991)) using a phosphoimager device for quantification. Leukemia cell lines Jurkat, CEM, HL-60, and U937 were obtained from American Type Culture Collection (Rockville, Md.). The cells were cultured in RPMI-1640 with 10% fetal bovine serum (Hyclone, Logan, Utah). Cobalamins were obtained from Sigma Chemical Company (St. Louis, Mo.). The cobalamins had extremely low endotoxin content, as determined by Limulus amebocyte lysate testing (Whitaker Bioproducts, Walkerville, Md.). When tested as a 3 mM solution, the cobalamins had less than 0.25 EU/ml. Cobalamins were not toxic for Mo, Mac, Lym, and leukemia cell line cells, as determined by morphology under phase microscopy, Wright staining of methanol-fixed cells, trypan blue exclusion, and thymidine incorporation were carried out in accordance with standard techniques.
Monocytes were inoculated at time zero with HIV-1-Bal (Weinberg et al, J. Exp. Med. 174:1477 (1991)) (MOI ˜0.1)and cultured with the designated cobalamin for 7-14 days. Supernatant medium RT was then measured (Weinberg et al, J. Exp. Med. 174:1477 (1991)). Results are provided as RT activity (mean±SEM of triplicates)and are derived from one experiment.

In data set [2] the test system is HIV-1-IIIB. Briefly: HIV-1 infection of PBL, supernatant medium RT activity. It is filed as cell-based. The conditions noted are these: added at viral inoculation and left in throughout culture. The method, then:
as §1
PBL were inoculated with HIV-1-IIIB (MOI ˜0.1) and cultured with the designated cobalamin for 15-25 days. Supernatant medium RT was then measured. Results are provided as RT activity (mean±SEM of triplicates) and are derived from one experiment.

The subject of data set [3] is HIV-1-IIIB. Briefly: HIV-1 infection of leukemia cell lines Jurkat, CEM, HL-60, U937, supernatant medium RT activity. The conditions noted are these: HL-60, U937 cell lines. It is filed as cell-based. The protocol:
as §1
Cells of the T lymphoblast cell line Jurkat and CEM, the myeloblast cell line HL-60, and the monoblast cell line U937 were inoculated with HIV-1-IIIB (MOI ˜0.1) and cultured for with the designated cobalamin for 10-20 days. Supernatant medium RT was then measured. Results are provided as RT activity (mean±SEM of triplicates) and are derived from one experiment.

Data set [4] concerns the target T1, recombinant CD4 with gp120 from HIV-1-IIIB (UniProt P01730+P04578).
T1 construct: gp120 from HIV-1-IIIB
Briefly: CD4-gp120 binding, gp120 from HIV-1-IIIB. The method, then: (§2) Cobalamins were incubated with CD4 and gp120 from HIV-1-IIIB in wells of microtiter wells, and binding was assessed as previously described. […] Serum from an HIV-1-infected person containing anti-gp120 antibody served as the “positive control”.
(§3) To determine whether cobalamins modified the binding of HIV-1 gp120 to CD4, the abilities of CN-Cbl, OH-Cbl, Me-Cbl, and Ado-Cbl to inhibit binding of recombinant CD4 with gp120 from HIV-1-IIIB or HIV-1-MN were tested (FIG. 2). No inhibition of binding was observed.

In data set [5] the target is T2, recombinant CD4 with gp120 from HIV-1-MN (UniProt P01730+P05877).
T2 construct: recombinant CD4 with gp120 from HIV-1-IIIB or HIV-1-MN
The data set can be described thus: CD4-gp120 binding, gp120 from HIV-1-MN. The protocol:
as §2, §3

For the next data set, the target named is T3, RT (Human immunodeficiency virus type 1 group M subtype B, UniProt P04585).
T3 construct: added to cell-free medium containing RT
Briefly: RT activity in cell-free medium. It is filed as biochemical, HIV-1. The conditions noted are these: 1 to 1000 μM added to cell-free medium containing RT.

Data set [6] deals with Mo, Mac, PBL, human leukemia cell lines Jurkat, CEM, HL-60, U937. The data set can be described thus: Toxicity for cells (morphology, Wright staining, trypan blue exclusion, thymidine incorporation). It is filed as cell-based. The following applies: concentrations ≦600 μM. The protocol:
as §1, with “When tested as a 3 mM solution, the cobalamins had less than 0.25 EU/ml.” left out
In general terms: Dividing cells build labelled thymidine or BrdU into new DNA.

The subject of data set [7] is HIV-1-BaL. The data set can be described thus: Syncytium (multinucleated giant cell) formation in HIV-1-inoculated monocytes. It is filed as cell-based. The following applies: 67 μM, HIV-1-BaL MOI ~0.1, 14 days. The protocol: OH-Cbl, Me-Cbl, Ado-Cbl, and CN-Cbl were not toxic for Mo, Mac, PBL, or cells of the human leukemia cell lines Jurkat, CEM, HL-60, or U937 at concentrations ≦600 μM. When added to the cultures of Mo, Mac, or PBL at the time of viral inoculation on day zero and left in throughout the culture period, there was potent inhibition of productive infection as judged by supernatant medium RT activity (see FIG. 1). Further evidence of the cobalamin inhibitory effect was derived from studies examining syncytium formation. Populations of monocytes not inoculated with virus were generally mononuclear, while those inoculated with HIV-1-BaL (MOI ˜0.1) cultured (14 days) without OH-Cbl (67 μM) had numerous multinucleated giant cells (syncytium).

In data set [8] the test system is U1 cells and OM-10.1 cells (HIV-1 integrated provirus). Briefly: TNF- or PMA-induced viral RT expression in latently-infected leukemia cells. It is filed as cell-based, human. The conditions noted are these: 250 μM; 500 U/ml TNF or 80 nM PMA; U1 and OM-10.1 cells. The method, then: To determine whether OH-Cbl would inhibit the ability of latently-infected leukemia cells to produce RT after stimulation with tumor necrosis factor (TNF) or phorbol myristate acetate (PMA), U1 (U937 monoblastic cell line with HIV-1 integrated provirus) cells (NIH AIDS Repository) and OM-10.1 cells (HL-60 myelobastic cell line with HIV-1 integrated provirus) (Dr. Clay Smith, Duke University, Durham, N.C.) were treated with 500 U/ml TNF or 80 nM PMA (with or without 250 μM OH-Cbl).

The conditions of data set [9]: humans, 5 to 7 grams by bolus intravenous infusion; cited from earlier work.

For the compound `C/C1=C2/[N-][C@H]([C@H](CC(N)=O)[C@@]2(C)CCC(=O)NC[C@@H](C)OP(=O)([O-])O[C@H]2[C@@H](O)[C@@H](n3cnc4cc(C)c(C)cc43)O[C@@H]2CO)[C@]2(C)N=C(/C(C)=C3N=C(/C=C4N=C1[C@@H](CCC(N)=O)C\4(C)C)[C@@H](CCC(N)=O)[C@]\3(C)CC(N)=O)[C@@H](CCC(N)=O)[C@]2(C)CC(N)=O.[CH3-].[Co]` [Me-Cbl], the “inhibition of productive HIV-1 infection” value with HIV-1-BaL [1] and in the data set with HIV-1-IIIB [2] was “inhibited” throughout. In addition, in the data set on HIV-1-IIIB [3], the “inhibition of HIV-1 infection” value is “did not inhibit”. Also, the “inhibition of CD4-gp120 binding” value in data set [4] and in [5] was “No inhibition” each time. Also, the “inhibition of RT activity” value at RT is on record as “inhibition of RT activity was not observed”.
For `C/C1=C2/[N-]C([C@H](CC(N)=O)[C@@]2(C)CCC(=O)NC[C@@H](C)OP(=O)([O-])O[C@H]2[C@@H](O)[C@@H](n3cnc4cc(C)c(C)cc43)O[C@@H]2CO)[C@]2(C)N=C(/C(C)=C3N=C(/C=C4N=C1[C@@H](CCC(N)=O)C\4(C)C)[C@@H](CCC(N)=O)[C@]\3(C)CC(N)=O)[C@@H](CCC(N)=O)[C@]2(C)CC(N)=O.[CH2-][C@H]1O[C@@H](n2cnc3c(N)ncnc32)[C@@H](O)[C@@H]1O.[Co+3]` [Ado-Cbl, adencobalamin], the “inhibition of productive HIV-1 infection” value with HIV-1-BaL [1] and in the data set on HIV-1-IIIB [2] was “inhibited” each time. Besides, the “inhibition of HIV-1 infection” value in the data set on HIV-1-IIIB [3] is listed as “did not inhibit”. For the same compound, the “inhibition of CD4-gp120 binding” value in [4] and in data set [5] was “No inhibition” throughout. For the same compound, on RT, the “inhibition of RT activity” value is recorded as “inhibition of RT activity was not observed”.
For cyanocobalamin [CN-Cbl], the “inhibition of productive HIV-1 infection” value in the data set on HIV-1-BaL [1] and in the data set with HIV-1-IIIB [2] was “little or no inhibitory activity” in each case. Besides, the “inhibitory effect in vitro” value in the data set on HIV-1-BaL [1] (in vitro, summary statement) was “little or no inhibitory effect”. The “inhibition of CD4-gp120 binding” value in [4] and in data set [5] was “No inhibition” in each case. The “inhibition of RT activity” value against RT is reported as “inhibition of RT activity was not observed”.
With `C/C1=C2/[N-][C@H]([C@H](CC(N)=O)[C@@]2(C)CCC(=O)NC[C@@H](C)OP(=O)([O-])O[C@H]2[C@@H](O)[C@@H](n3cnc4cc(C)c(C)cc43)O[C@@H]2CO)[C@]2(C)N=C(/C(C)=C3N=C(/C=C4N=C1[C@@H](CCC(N)=O)C\4(C)C)[C@@H](CCC(N)=O)[C@]\3(C)CC(N)=O)[C@@H](CCC(N)=O)[C@]2(C)CC(N)=O.[Co+3].[OH-]` [OH-Cbl, hydroxocobalamin], the “inhibition of HIV-1 infection” value was “no inhibition” in the data set with HIV-1-BaL [1] (Mo incubated simultaneously with 250 μM and HIV-1 for 4 hours, washed, cultured 10 days); “did not inhibit” in the data set on HIV-1-IIIB [3]. The “inhibition of subsequent RT production” value in the data set with HIV-1-BaL [1] (Mo inoculated and cultured 6 days, washed, then cultured with 250 μM) is recorded as “no inhibition”. Besides, the “inhibition of RT” value in the data set on HIV-1-BaL [1] (Mo pretreated with 250 μM for 24 hours, washed, then inoculated with HIV-1-BaL) is “approximately 80%”. Besides, the “inhibition of productive HIV-1 infection” value in the data set on HIV-1-BaL [1] and in the data set on HIV-1-IIIB [2] was “inhibited” each time. Besides, the toxicity for cells result in data set [6] is reported as “not toxic”. Also, the “inhibition of syncytium formation” value in the data set on HIV-1-BaL [7] was determined as 100%. In addition, in data set [8], the “inhibition of expression of induced viral RT” value is “did not inhibit”. In addition, the “inhibition of CD4-gp120 binding” value in data set [4] and in [5] was “No inhibition” each time. Also, on RT, the “inhibition of RT activity” value is “inhibition of RT activity was not observed”. In addition, in data set [9], the resultant serum levels is given as “μM to mM”. Further, the side effects entry in data set [9] is “minimal”.

The values above are taken from patent US6787527B1, “Methods of preventing and treating HIV infection” (Duke University, priority 1994, dated 2004).
